# Measurements published in PubChem BioAssay AID1996.
# Details: buffer; pH 7.4; 200.0 µM
row,Compound,solubility kinetic [µg/mL]
1,COc1ccc2c(c1)CC(C(=O)Nc1ccc(Cl)cc1)/C(=N/O)O2 (stereo not given),< 0.4
2,COc1ccc(OCC(=O)C2CC2)c(C#N)c1,27.5
3,O=C(c1ccc([N+](=O)[O-])cc1Cl)N1CCN(c2ccccn2)CC1,> 52
4,CCc1ccc(CNC(=O)C2CC(=O)N(C3CCCC3)C2)cc1 (stereo not given),> 47.2
5,Cc1cc(C)cc(NC(=S)N2CCN(c3ccccn3)CC2)c1,9.2
6,NCCc1nc2ccccc2s1,23.2
7,Cc1ccc(CN2CCS(=O)(=O)CC2)o1,> 34.4
8,COC(=O)c1ccc(CO/N=C/c2ccccc2OC)cc1,2.6
9,CCC(CC)C(=O)Nc1cccc(C(=O)NC(C)(C)C)c1,> 43.6
10,O=C(O)Cn1cc(/C=N/Nc2ccc([N+](=O)[O-])cn2)c2ccccc21,> 50.9
11,COc1cc2c(cc1OC)CN(C(=O)CCN1C(=O)C3CCCCC3C1=O)CC2 (stereo not given),46.2
12,O=C(O)c1ccccc1-c1cc2ccccc2[nH]1,29.9
13,COC(=O)c1ccc(S(=O)(=O)c2ccc(Cl)cc2)c(N)c1,1.2
14,CN1C(=O)CCC(CCC(=O)O)(c2ccccc2O)C1=O (stereo not given),> 43.7
15,O=[N+]([O-])c1ccc2c(c1)nc1n2CCSC1,> 35.3
16,Cc1cc(C(=O)Nc2ccncc2)ccc1[N+](=O)[O-],18.4
17,Cc1nnc(SCC(=O)Nc2ccccc2F)n(N)c1=O,> 46.4
18,COc1ccc(Nc2c(-c3ccco3)nc3ccc(C)cn23)cc1,0.5
19,OCCN(Cc1ccccc1)C(=S)Nc1ccc(F)cc1,43.1
20,O=C(CN1CCOCC1)N1c2ccccc2Sc2ccccc21,> 49

row,Compound,solubility kinetic [µg/mL]
1,NC(=O)C1CCN(C(=O)Nc2csc3ccccc23)CC1,42
2,CSc1ccccc1C(=O)Nc1ccccc1C(=O)NC(C)C,> 49.3
3,CCOC(=O)c1cc(CC)sc1NC(=O)COC(=O)C1CCC1,< 0.7
4,Cc1ccc(-n2c(C)nc3ccccc3c2=O)c(C)c1,> 39.6
5,Nc1ncnc(SCc2c(F)cccc2Cl)n1,2.8
6,COC(=O)C1=C(N)Oc2cc(C)[nH]c(=O)c2C1c1ccc(Cl)cc1 (stereo not given),1.7
7,CN(CC(=O)Nc1c(F)cccc1F)Cc1cccs1,> 44.5
8,COc1cnc(-c2ccccc2)nc1Oc1ccc(Cl)cc1C,< 0.3
9,O=C1CCC([N+](=O)[O-])C(c2cc(Br)ccc2F)N1 (stereo not given),46.4
10,CC1CCN(C(=O)c2ccc(-c3ccccc3Cl)o2)CC1,7.3
11,CC(=O)Nc1ccc(-n2c(C)ccc2-c2ccccc2)cc1,4.4
12,O=C(COc1ccc(Br)cc1)N(CCO)CCO,34.5
13,CCS(=O)(=O)Nc1ccc2[nH]c(=O)[nH]c2c1,> 36.2
14,CCOc1ccc(N(C(=O)C2CCCO2)C2C=CS(=O)(=O)C2)cc1 (stereo not given),> 52.7
15,Cc1ccc(NC(=O)c2nc3nccc(C)n3n2)c(C)c1,> 42.2
16,O=C(CN1CCN(Cc2ccccc2)CC1)NCc1ccc(Cl)cc1,> 53.7
17,O=C(CNS(=O)(=O)c1ccccc1)N1CCCC1,> 40.2
18,CCc1nc2ccccc2c(C(=O)OCC(=O)NC2CC2)c1C,> 46.9
19,CCN(CC(=O)NCc1ccc(F)cc1)CC(=O)Nc1ccc(Br)cc1F,58.9
20,Cc1cc2ncc(-c3ccccc3)nc2cc1C,< 0.3

row,Compound,solubility kinetic [µg/mL]
1,CC1CCCN(Cc2nc(Cc3ccccc3Cl)no2)C1 (stereo not given),27
2,CCOC(=O)c1c(C)[nH]c(C)c1C(=O)COC(=O)CSc1ccc(C)cc1,> 58.4
3,C=CCn1c(=O)c2ccccc2n2c(SCC(=O)N(C)C)nnc12,> 51.5
4,CN(Cc1ccccc1)C(=O)CN1CCCC1=O,> 36.9
5,CCCNc1nc2ccccc2c(=O)[nH]1,> 30.5
6,Cc1cc(C)cc(C(=O)NCC(=O)OCC(=O)NC2CC2)c1,> 45.7
7,COc1ccc(OC)c2c1sc(=NC(=O)C1CCCCC1)n2C,< 0.4
8,N#Cc1cc([N+](=O)[O-])ccc1N1CCN(c2ccccc2O)CC1,2.4
9,COc1ccccc1NS(=O)(=O)c1cc(NC(=O)COc2ccccc2F)ccc1N1CCOCC1,2.4
10,Clc1ccc(CNc2ccccn2)cc1,25.8
11,CCc1cc(Cl)c(OC)c(C(=O)NC[C@@H]2CCCN2CC)c1O.Cl,> 56.6
12,Cc1ccc(C(=O)NCC(C)NC(=O)c2ccc(C)c(C)c2)cc1C (stereo not given),3.4
13,Cc1ccccc1NC(=S)NC(=O)Cc1ccc(Cl)cc1,0.5
14,O=C(Nc1cc(C(F)(F)F)ccc1Cl)c1cccnc1,32.7
15,O=C(CN1C(=O)C2CC=CCC2C1=O)N1CCN(S(=O)(=O)c2ccccc2)CC1 (stereo not given),> 62.6
16,CC(C)(C)C(=O)OC/C(N)=N/OC(=O)c1ccccc1,> 41.7
17,COc1ccc(-c2noc(CN(C)C(=O)c3ccoc3C)n2)cc1OC,43.3
18,Cc1occc1C(=O)O/N=C(\N)c1ccccc1,36.1
19,CS(=O)(=O)N1CCN(CC(=O)NC2CCCC2)CC1,> 43.4
20,CCN(CC(=O)N1CCOCC1)S(=O)(=O)c1ccccc1,> 46.9
